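These data come from cells grown in 96-well plates and exposed to compound for 48 hours at five concentrations. GI50 = concentration required for 50% inhibition of growth.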 The source made the active and inactive calls. Cut-off read from the data, not from the text of the source: active = GI50 up to about 1.1 µM and inactive = higher.
Columns and labels:
Test in all cases: inhibition of tumour cell growth, NCI panel, 48 h
CAKI-1 = test system: CAKI-1
RXF 393 = test system: RXF 393
NCI/ADR-RES = test system: NCI/ADR-RES
DU-145 = test system: DU-145
M14 = test system: M14
K562 = test system: K562
Hs-578T = test system: Hs-578T
SK-MEL-5 = test system: SK-MEL-5
U-251 = test system: U-251
SR = test system: SR
IGROV-1 = test system: IGROV-1
OVCAR-4 = test system: OVCAR-4
SW-620 = test system: SW-620
COLO 205 = test system: COLO 205
HCT-15 = test system: HCT-15
NCI-H226 = test system: NCI-H226
SF-539 = test system: SF-539
SK-MEL-2 = test system: SK-MEL-2
BT-549 = test system: BT-549
HOP-92 = test system: HOP-92

Row | Structure (SMILES) | GI50 (CAKI-1) | GI50 (RXF 393) | GI50 (NCI/ADR-RES) | GI50 (DU-145) | GI50 (M14) | GI50 (K562) | GI50 (Hs-578T) | GI50 (SK-MEL-5) | GI50 (U-251) | GI50 (SR) | GI50 (IGROV-1) | GI50 (OVCAR-4) | GI50 (SW-620) | GI50 (COLO 205) | GI50 (HCT-15) [µM] | GI50 (NCI-H226) | GI50 (SF-539) | GI50 (SK-MEL-2) | GI50 (BT-549) | GI50 (HOP-92)
1 | NC(=O)NC(=O)c1ccc(NC(=O)CBr)cc1 | 0.679 µM (active) | 1.77 µM (inactive) | 2.56 µM (inactive) | 2.44 µM (inactive) | 11.8 µM (inactive) | 0.705 µM (active) | 2.31 µM (inactive) | 1.62 µM (inactive) | 0.984 µM (active) | 0.333 µM (active) | 2.03 µM (inactive) | 1.66 µM (inactive) | 0.344 µM (active) | 1.48 µM (inactive) | 1.8 | 3.33 µM (inactive) | 2.18 µM (inactive) | 1.99 µM (inactive) | 2.1 µM (inactive) | 1.6 µM (inactive)
2 | O/N=N/c1cnccn1 | 975 µM (inactive) | > 1250 µM (inactive) | > 1250 µM (inactive) | 1090 µM (inactive) | > 1250 µM (inactive) | > 1190 µM (inactive) | > 1210 µM (inactive) | > 1250 µM (inactive) | 1080 µM (inactive) | > 180 µM (inactive) | > 1150 µM (inactive) | > 438 µM (inactive) | > 1250 µM (inactive) | > 1220 µM (inactive) | > 1080 | 1250 µM (inactive) | > 1190 µM (inactive) | > 1200 µM (inactive) | > 979 µM (inactive) | > 1080 µM (inactive)
3 | N#Cc1ccc(C(=O)/C=C/c2ccc(O)c(O)c2)cc1 | 15.3 µM (inactive) | 16.8 µM (inactive) | > 43 µM (inactive) | 16.3 µM (inactive) | 18.2 µM (inactive) | 7.1 µM (inactive) | 24.4 µM (inactive) | 15.2 µM (inactive) | 13.4 µM (inactive) | 1.57 µM (inactive) | 12.8 µM (inactive) | 12.4 µM (inactive) | 13.2 µM (inactive) | 16.7 µM (inactive) | 15.5 | 20.2 µM (inactive) | 15.6 µM (inactive) | 17.3 µM (inactive) | 12.6 µM (inactive) | 15.5 µM (inactive)
4 | Cc1cc2[nH]c(Cl)c(/C=C3\C(=O)Nc4ccccc43)c2cc1O | 5.25 µM (inactive) | 2.25 µM (inactive) | 3.25 µM (inactive) | 2.86 µM (inactive) | 2.88 µM (inactive) | 0.957 µM (active) | 4.18 µM (inactive) | 1.2 µM (inactive) | 2.26 µM (inactive) | 0.228 µM (active) | 1.8 µM (inactive) | 7.52 µM (inactive) | 1.81 µM (inactive) | 13.8 µM (inactive) | 1.66 | 0.542 µM (active) | 1.17 µM (inactive) | 2.1 µM (inactive) | 6.53 µM (inactive) | 8.93 µM (inactive)
5 | NCC1OC(n2cnc3c(N)ncnc32)CC1O (stereo not given) | > 100 µM (inactive) | > 100 µM (inactive) | > 100 µM (inactive) | > 100 µM (inactive) | > 100 µM (inactive) | > 100 µM (inactive) | > 100 µM (inactive) | > 100 µM (inactive) | > 100 µM (inactive) | > 100 µM (inactive) | > 100 µM (inactive) | > 100 µM (inactive) | > 100 µM (inactive) | > 100 µM (inactive) | > 100 | > 100 µM (inactive) | > 100 µM (inactive) | > 100 µM (inactive) | > 100 µM (inactive) | > 100 µM (inactive)
6 | CCC(CC)(CO)CNc1cc(Cl)nc(N)n1 | > 100 µM (inactive) | 67.1 µM (inactive) | > 100 µM (inactive) | > 100 µM (inactive) | – | > 100 µM (inactive) | > 100 µM (inactive) | 60.7 µM (inactive) | > 100 µM (inactive) | > 100 µM (inactive) | > 100 µM (inactive) | 87.9 µM (inactive) | > 100 µM (inactive) | > 100 µM (inactive) | > 100 | 77.1 µM (inactive) | > 100 µM (inactive) | > 100 µM (inactive) | > 100 µM (inactive) | 11.3 µM (inactive)
7 | COc1cc2cc(C(=O)N3CC(COS(C)(=O)=O)c4ccc(NC(=O)OCc5ccccc5)cc43)[nH]c2c(OC)c1OC (stereo not given) | > 100 µM (inactive) | 25.2 µM (inactive) | > 100 µM (inactive) | > 100 µM (inactive) | > 100 µM (inactive) | > 100 µM (inactive) | > 100 µM (inactive) | 26.5 µM (inactive) | > 100 µM (inactive) | 3.24 µM (inactive) | > 100 µM (inactive) | > 100 µM (inactive) | > 100 µM (inactive) | > 100 µM (inactive) | > 100 | > 100 µM (inactive) | > 100 µM (inactive) | 67.1 µM (inactive) | > 100 µM (inactive) | 9.59 µM (inactive)
8 | CC1=NN(c2nc(N)nc(CS(C)(=O)=O)n2)C(C)(C)C1 | > 100 µM (inactive) | > 100 µM (inactive) | > 100 µM (inactive) | > 100 µM (inactive) | > 100 µM (inactive) | > 100 µM (inactive) | > 100 µM (inactive) | > 100 µM (inactive) | > 100 µM (inactive) | > 100 µM (inactive) | > 100 µM (inactive) | > 100 µM (inactive) | > 100 µM (inactive) | > 100 µM (inactive) | > 100 | – | > 100 µM (inactive) | > 100 µM (inactive) | > 100 µM (inactive) | > 100 µM (inactive)
9 | C=C1CCC2CC1[C@@H](C(=O)c1c[nH]c3ccccc13)NC2(C)C (stereo not given in full) | 8.51 µM (inactive) | > 37.5 µM (inactive) | > 37.5 µM (inactive) | > 37.5 µM (inactive) | – | 21.9 µM (inactive) | > 37.5 µM (inactive) | > 37.5 µM (inactive) | > 37.5 µM (inactive) | 33 µM (inactive) | > 37.5 µM (inactive) | > 37.5 µM (inactive) | > 37.5 µM (inactive) | 35 µM (inactive) | > 37.5 | > 37.5 µM (inactive) | > 37.5 µM (inactive) | 27.1 µM (inactive) | > 37.5 µM (inactive) | 13.2 µM (inactive)
10 | NC(=O)NCCCC(NC(=O)OCCCCCCn1ccc(=O)[nH]c1=O)C(=O)O (stereo not given) | > 100 µM (inactive) | > 100 µM (inactive) | > 100 µM (inactive) | > 100 µM (inactive) | > 100 µM (inactive) | > 100 µM (inactive) | > 100 µM (inactive) | – | > 100 µM (inactive) | 9.42 µM (inactive) | > 100 µM (inactive) | > 100 µM (inactive) | > 100 µM (inactive) | > 100 µM (inactive) | > 100 | > 100 µM (inactive) | > 100 µM (inactive) | > 100 µM (inactive) | > 100 µM (inactive) | > 100 µM (inactive)
11 | C/C=C/COc1cc(NC(=S)c2ccoc2C)ccc1OC | 25.6 µM (inactive) | > 100 µM (inactive) | 39.4 µM (inactive) | 71.1 µM (inactive) | > 100 µM (inactive) | – | 34 µM (inactive) | 48.9 µM (inactive) | 51.4 µM (inactive) | > 100 µM (inactive) | 55.2 µM (inactive) | 23 µM (inactive) | > 100 µM (inactive) | > 100 µM (inactive) | > 100 | > 100 µM (inactive) | 76.7 µM (inactive) | > 100 µM (inactive) | > 100 µM (inactive) | 16.7 µM (inactive)
